Measurements reported in ChEMBL document CHEMBL1201862, “PubChem BioAssay data set” (2004).
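Five concentrations, 48 hours, 96-well plates. GI50 = concentration required for 50% inhibition of growth.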 Activity calls are given as the source filed them. Rule as the data show it: active = GI50 up to about 1.1 µM and inactive = higher. Non-standard residues stand in square brackets, D forms with d. Residues, ends and D or L forms follow the SMILES beside them. *: point of attachment. NMeF = CN[CH](Cc1ccccc1)C(=O)O; NMeV = CN[CH](C(=O)O)C(C)C; Boc = CC(C)(C)OC(=O)*

Experiments:
Experiment in all cases: DTP human tumour cell line panel, 48 h
HCC 2998 = tested on: HCC 2998
SK-MEL-28 = tested on: SK-MEL-28
A549 = tested on: A549
SNB-19 = tested on: SNB-19
Malme-3M = tested on: Malme-3M
NCI-H23 = tested on: NCI-H23
SF-295 = tested on: SF-295
SNB-75 = tested on: SNB-75
HCT-116 = tested on: HCT-116
RPMI-8226 = tested on: RPMI-8226
UACC-62 = tested on: UACC-62
786-0 = tested on: 786-0
HL-60 = tested on: HL-60
NCI-H522 = tested on: NCI-H522
M14 = tested on: M14
CAKI-1 = tested on: CAKI-1

Measured: GI50

CCOC(=O)c1ccc(N2C(=O)Cc3ccccc3C2=O)cc1
inactive: HCC 2998 > 100 µM | SK-MEL-28 > 100 µM | A549 > 100 µM | SNB-19 > 100 µM | Malme-3M > 100 µM | NCI-H23 > 100 µM | SF-295 > 100 µM | SNB-75 > 100 µM | HCT-116 > 100 µM | RPMI-8226 > 100 µM | UACC-62 > 100 µM | 786-0 > 100 µM

CN(C)c1ccc(/C=C/C=C\c2cc(/C=C/C=C/c3ccc(N(C)C)cc3)[s+]c3ccccc23)cc1.[O-][Cl+3]([O-])([O-])[O-]
inactive: SK-MEL-28 14.2 µM | HL-60 4.53 µM | A549 > 100 µM | SNB-19 > 100 µM | Malme-3M 24.4 µM | NCI-H522 10 µM | NCI-H23 10 µM | SF-295 > 100 µM | M14 14.5 µM | SNB-75 > 100 µM | HCT-116 78.5 µM | RPMI-8226 55.3 µM | CAKI-1 10 µM | UACC-62 28.2 µM | 786-0 90.6 µM

CC(=O)OC1COC(N2C(=O)C(=O)c3cc(Br)ccc32)C(OC(C)=O)C1OC(C)=O (stereo unspecified)
inactive: HCC 2998 > 100 µM | SK-MEL-28 > 100 µM | A549 > 100 µM | SNB-19 > 100 µM | Malme-3M > 100 µM | NCI-H522 > 100 µM | NCI-H23 > 100 µM | SF-295 > 100 µM | M14 > 100 µM | SNB-75 > 100 µM | RPMI-8226 > 100 µM | CAKI-1 > 100 µM | UACC-62 > 100 µM | 786-0 > 100 µM

COc1cc2c3c(c1OC)C1(C=CC(=O)C=C1)CC3N(C(=O)OC(C)(C)C(Cl)(Cl)Cl)CC2 (stereo unspecified)
inactive: HL-60 1.95 µM | A549 10.5 µM | SNB-19 14.9 µM | Malme-3M 14.2 µM | NCI-H522 8.93 µM | NCI-H23 16.4 µM | SF-295 13.4 µM | M14 14.5 µM | SNB-75 15.1 µM | HCT-116 6.25 µM | RPMI-8226 2.23 µM | CAKI-1 14.9 µM | UACC-62 13.1 µM | 786-0 14.2 µM

CC(=O)C(CN(Cc1ccccc1)Cc1ccccc1)C(c1ccccc1)c1c(O)c2ccccc2oc1=O (stereo unspecified)
inactive: HL-60 > 100 µM | A549 > 100 µM | SNB-19 > 100 µM | Malme-3M > 100 µM | NCI-H522 > 100 µM | NCI-H23 > 100 µM | SF-295 > 100 µM | M14 > 100 µM | SNB-75 > 100 µM | HCT-116 > 100 µM | RPMI-8226 > 100 µM | CAKI-1 > 100 µM | UACC-62 > 100 µM | 786-0 > 100 µM

O=C(Nc1ccn(CCO)c(=O)n1)c1ccccc1
inactive: SK-MEL-28 > 100 µM | HL-60 > 100 µM | A549 > 100 µM | Malme-3M > 100 µM | NCI-H522 > 100 µM | SF-295 > 100 µM | M14 > 100 µM | SNB-75 > 100 µM | HCT-116 > 100 µM | RPMI-8226 > 100 µM | CAKI-1 > 100 µM | UACC-62 > 100 µM | 786-0 > 100 µM

[N-]=[N+]=Nc1cc(=O)oc2ccccc12
inactive: SK-MEL-28 > 100 µM | HL-60 > 100 µM | A549 > 100 µM | Malme-3M > 100 µM | NCI-H522 > 100 µM | NCI-H23 > 100 µM | SF-295 > 100 µM | M14 > 100 µM | SNB-75 > 100 µM | HCT-116 > 100 µM | RPMI-8226 > 100 µM | CAKI-1 > 100 µM | UACC-62 > 100 µM | 786-0 > 100 µM

CC12CCC3=C(CSC4=C3CSc3ccccc34)C1=CCCC2=O (stereo unspecified)
inactive: HCC 2998 47.4 µM | SK-MEL-28 > 100 µM | HL-60 73.1 µM | A549 36.5 µM | SNB-19 66.5 µM | Malme-3M 31 µM | NCI-H522 27.4 µM | NCI-H23 > 100 µM | M14 27.8 µM | HCT-116 58.3 µM | RPMI-8226 61.2 µM | CAKI-1 35.1 µM

O=C1C2=C(CCC2)Nc2cccc3ncn1c23
inactive: HCC 2998 > 100 µM | SK-MEL-28 61.9 µM | HL-60 15 µM | A549 33.7 µM | SNB-19 > 100 µM | Malme-3M > 100 µM | NCI-H522 69.7 µM | NCI-H23 51.6 µM | SF-295 > 100 µM | HCT-116 34 µM | RPMI-8226 > 100 µM | UACC-62 40.1 µM | 786-0 > 100 µM

COc1ccc2ccccc2c1C1=NC(C)(C)CO1
inactive: SK-MEL-28 > 100 µM | HL-60 > 100 µM | A549 > 100 µM | SNB-19 > 100 µM | Malme-3M > 100 µM | NCI-H522 > 100 µM | NCI-H23 > 100 µM | SF-295 > 100 µM | M14 > 100 µM | SNB-75 > 100 µM | HCT-116 > 100 µM | RPMI-8226 > 100 µM | CAKI-1 > 100 µM | UACC-62 > 100 µM | 786-0 > 100 µM

COC(=O)C1CCc2c(OC)ccc(OC)c2C1=O (stereo unspecified)
inactive: HCC 2998 > 100 µM | SK-MEL-28 > 100 µM | HL-60 > 100 µM | A549 > 100 µM | SNB-19 > 100 µM | Malme-3M > 100 µM | NCI-H522 > 100 µM | NCI-H23 > 100 µM | SF-295 > 100 µM | M14 > 100 µM | HCT-116 > 100 µM | RPMI-8226 > 100 µM | CAKI-1 > 100 µM | UACC-62 > 100 µM | 786-0 > 100 µM

NC(CCC(=O)NC(CSSCCCCS(=O)O)C(=O)NCC(=O)O)C(=O)O (stereo unspecified)
inactive: HCC 2998 > 100 µM | SK-MEL-28 > 100 µM | A549 > 100 µM | SNB-19 > 100 µM | Malme-3M > 100 µM | NCI-H522 > 100 µM | NCI-H23 > 100 µM | SF-295 > 100 µM | M14 > 100 µM | SNB-75 23.4 µM | HCT-116 > 100 µM | CAKI-1 > 100 µM | UACC-62 > 100 µM | 786-0 > 100 µM

COc1ccc(C2C(Cl)C(=O)N2NC(=O)c2ccccc2O)cc1OC (stereo unspecified)
inactive: SK-MEL-28 > 100 µM | HL-60 41 µM | A549 > 100 µM | SNB-19 > 100 µM | Malme-3M 65.3 µM | NCI-H522 32.2 µM | NCI-H23 > 100 µM | SF-295 51.8 µM | M14 > 100 µM | HCT-116 > 100 µM | UACC-62 > 100 µM | 786-0 > 100 µM

CC(C)C(NC(=O)OC(C)(C)C)C(=O)N(C)C(Cc1ccccc1)C(=O)N(C)C(C(=O)N(C)C(C(=O)O)C(C)C)C(C)C (stereo unspecified) (Boc-V[NMeF][NMeV][NMeV]-OH; configuration not given here)
inactive: HCC 2998 > 100 µM | SK-MEL-28 > 100 µM | HL-60 > 100 µM | A549 > 100 µM | SNB-19 > 100 µM | Malme-3M > 100 µM | NCI-H522 > 100 µM | NCI-H23 > 100 µM | SF-295 > 100 µM | M14 > 100 µM | HCT-116 > 100 µM | RPMI-8226 > 100 µM | UACC-62 > 100 µM | 786-0 > 100 µM
